Values quoted from earlier work in patent publication US20050282838A1, “Compounds, compositions, and methods” (priority 2003, published 2005).

Test system: A549 cells
Conditions: data provided by National Cancer Institute
For `O=c1[nH]cc(F)c(=O)[nH]1` [5-fluorouracil], the GI50 is given as 1000 nM.
For `COc1cccc2c1C(=O)c1c(O)c3c(c(O)c1C2=O)C[C@@](O)(C(=O)CO)C[C@@H]3O[C@H]1C[C@H](N)[C@H](O)[C@H](C)O1` [doxorubicin], the GI50 is given as 63 nM.
For `NC(=O)NO` [hydroxyurea], the GI50 is listed as 500000 nM.
For `CC(=O)O[C@H]1C(=O)[C@@]2(C)[C@H]([C@H](OC(=O)c3ccccc3)[C@]3(O)C[C@H](OC(=O)[C@H](O)[C@@H](NC(=O)c4ccccc4)c4ccccc4)C(C)=C1C3(C)C)[C@]1(OC(C)=O)CO[C@@H]1C[C@@H]2O` [paclitaxel], the GI50 is listed as 4 nM.
